Assay results published in ChEMBL document CHEMBL2413072, “Synthesis and in vitro anticancer studies of novel C-2 arylidene congeners of lantadenes” (2013).
Activity calls are given as the source filed them. The calls are words filed in the database; no cut-off is given here.

Key:
Type in all cases: functional
[1] = system: BT-549; test: Growth inhibition of human BT549 cells assessed as growth inhibition at 10 uM by sulforhodamine B assay; details: read-out: GI
[2] = Growth inhibition of human Hs 578T cells assessed as growth inhibition at 10 uM by sulforhodamine B assay; details: read-out: GI
[3] = system: UO-31; test: Growth inhibition of human UO31 cells assessed as growth inhibition at 10 uM by sulforhodamine B assay
[4] = system: TK-10; test: Growth inhibition of human TK10 cells assessed as growth inhibition at 10 uM by sulforhodamine B assay; details: read-out: GI
[5] = system: RXF 393; test: Growth inhibition of human RXF393 cells assessed as growth inhibition at 10 uM by sulforhodamine B assay; details: read-out: GI
[6] = system: ACHN; test: Growth inhibition of human ACHN cells assessed as growth inhibition at 10 uM by sulforhodamine B assay; details: read-out: GI
[7] = system: A498; test: Growth inhibition of human A498 cells assessed as growth inhibition at 10 uM by sulforhodamine B assay
[8] = system: 786-0; test: Growth inhibition of human 786-0 cells assessed as growth inhibition at 10 uM by sulforhodamine B assay
[9] = Growth inhibition of human NCI-ADR-RES cells assessed as growth inhibition at 10 uM by sulforhodamine B assay; details: read-out: GI
[10] = system: MOLT-4; test: Growth inhibition of human MOLT4 cells assessed as cell growth at 10 uM by sulforhodamine B assay; details: read-out: Activity
[11] = system: HL-60(TB); test: Growth inhibition of human HL-60(TB) cells assessed as cell growth at 10 uM by sulforhodamine B assay; details: read-out: Activity
[12] = system: CCRF-CEM; test: Growth inhibition of human CCRF-CEM cells assessed as cell growth at 10 uM by sulforhodamine B assay; details: read-out: Activity
[13] = system: IGROV-1; test: Growth inhibition of human IGROV1 cells assessed as growth inhibition at 10 uM by sulforhodamine B assay; details: read-out: GI
[14] = system: UACC-62; test: Growth inhibition of human UACC62 cells assessed as growth inhibition at 10 uM by sulforhodamine B assay
[15] = system: SK-MEL-28; test: Growth inhibition of human SK-MEL-28 cells assessed as growth inhibition at 10 uM by sulforhodamine B assay; details: read-out: GI
[16] = system: Malme-3M; test: Growth inhibition of human MALME-3M cells assessed as growth inhibition at 10 uM by sulforhodamine B assay; details: read-out: GI
[17] = system: U-251; test: Growth inhibition of human U251 cells assessed as growth inhibition at 10 uM by sulforhodamine B assay; details: read-out: GI
[18] = system: SW-620; test: Growth inhibition of human SW620 cells assessed as growth inhibition at 10 uM by sulforhodamine B assay; details: read-out: GI
[19] = system: HCT-15; test: Growth inhibition of human HCT15 cells assessed as growth inhibition at 10 uM by sulforhodamine B assay; details: read-out: GI
[20] = system: HCT-116; test: Growth inhibition of human HCT116 cells assessed as growth inhibition at 10 uM by sulforhodamine B assay; details: read-out: GI
[21] = system: NCI-H460; test: Growth inhibition of human NCI-H460 cells assessed as growth inhibition at 10 uM by sulforhodamine B assay; details: read-out: GI
[22] = system: NCI-H23; test: Growth inhibition of human NCI-H23 cells assessed as growth inhibition at 10 uM by sulforhodamine B assay; details: read-out: GI
[23] = system: HOP-92; test: Growth inhibition of human HOP92 cells assessed as growth inhibition at 10 uM by sulforhodamine B assay
[24] = system: A549; test: Growth inhibition of human A549/ATCC cells assessed as growth inhibition at 10 uM by sulforhodamine B assay; details: read-out: GI
[25] = system: SR; test: Growth inhibition of human SR cells assessed as growth inhibition at 10 uM by sulforhodamine B assay; details: read-out: GI
[26] = system: T47D; test: Growth inhibition of human T47D cells assessed as cell growth at 10 uM by sulforhodamine B assay; details: read-out: Activity
[27] = system: MCF7; test: Growth inhibition of human MCF7 cells assessed as cell growth at 10 uM by sulforhodamine B assay; details: read-out: Activity
[28] = system: DU-145; test: Growth inhibition of human DU145 cells assessed as cell growth at 10 uM by sulforhodamine B assay; details: read-out: Activity
[29] = system: PC-3; test: Growth inhibition of human PC3 cells assessed as cell growth at 10 uM by sulforhodamine B assay; details: read-out: Activity
[30] = system: TK-10; test: Growth inhibition of human TK10 cells assessed as cell growth at 10 uM by sulforhodamine B assay; details: read-out: Activity
[31] = system: 786-0; test: Growth inhibition of human 786-0 cells assessed as cell growth at 10 uM by sulforhodamine B assay; details: read-out: Activity
[32] = system: OVCAR-5; test: Growth inhibition of human OVCAR5 cells assessed as cell growth at 10 uM by sulforhodamine B assay; details: read-out: Activity
[33] = system: OVCAR-4; test: Growth inhibition of human OVCAR4 cells assessed as cell growth at 10 uM by sulforhodamine B assay; details: read-out: Activity
[34] = system: IGROV-1; test: Growth inhibition of human IGROV1 cells assessed as cell growth at 10 uM by sulforhodamine B assay; details: read-out: Activity
[35] = system: UACC-62; test: Growth inhibition of human UACC62 cells assessed as cell growth at 10 uM by sulforhodamine B assay; details: read-out: Activity
[36] = system: SK-MEL-5; test: Growth inhibition of human SK-MEL-5 cells assessed as cell growth at 10 uM by sulforhodamine B assay; details: read-out: Activity
[37] = system: SK-MEL-2; test: Growth inhibition of human SK-MEL-2 cells assessed as cell growth at 10 uM by sulforhodamine B assay; details: read-out: Activity
[38] = system: MDA-MB-435; test: Growth inhibition of human MDA-MB-435 cells assessed as cell growth at 10 uM by sulforhodamine B assay; details: read-out: Activity
[39] = system: SNB-75; test: Growth inhibition of human SNB75 cells assessed as cell growth at 10 uM by sulforhodamine B assay; details: read-out: Activity
[40] = system: SNB-19; test: Growth inhibition of human SNB19 cells assessed as cell growth at 10 uM by sulforhodamine B assay; details: read-out: Activity
[41] = system: HCT-116; test: Growth inhibition of human HCT116 cells assessed as cell growth at 10 uM by sulforhodamine B assay; details: read-out: Activity
[42] = system: COLO 205; test: Growth inhibition of human COLO205 cells assessed as cell growth at 10 uM by sulforhodamine B assay; details: read-out: Activity
[43] = system: NCI-H460; test: Growth inhibition of human NCI-H460 cells assessed as cell growth at 10 uM by sulforhodamine B assay; details: read-out: Activity
[44] = system: NCI-H322M; test: Growth inhibition of human NCI-H322M cells assessed as cell growth at 10 uM by sulforhodamine B assay; details: read-out: Activity
[45] = system: NCI-H23; test: Growth inhibition of human NCI-H23 cells assessed as cell growth at 10 uM by sulforhodamine B assay; details: read-out: Activity
[46] = system: HOP-92; test: Growth inhibition of human HOP92 cells assessed as cell growth at 10 uM by sulforhodamine B assay; details: read-out: Activity
[47] = system: HOP-62; test: Growth inhibition of human HOP62 cells assessed as cell growth at 10 uM by sulforhodamine B assay; details: read-out: Activity
[48] = system: SR; test: Growth inhibition of human SR cells assessed as cell growth at 10 uM by sulforhodamine B assay; details: read-out: Activity
[49] = system: SF-295; test: Growth inhibition of human SF295 cells assessed as cell growth at 10 uM by sulforhodamine B assay; details: read-out: Activity

CC(C)=CC(=O)O[C@@H]1CC(C)(C)C[C@H]2C3=CC[C@@H]4[C@@]5(C)CCC(=O)C(C)(C)[C@@H]5CC[C@@]4(C)[C@]3(C)CC[C@@]12C(=O)O
inhibition of growth at 10 µM [1]: 30.4%
inhibition of growth at 10 µM [2]: 20.4%
inhibition of growth at 10 µM ([3]; read-out: GI): 58%
inhibition of growth at 10 µM [4]: 21.9%
inhibition of growth at 10 µM [5]: 15.4%
inhibition of growth at 10 µM [6]: 56.1%
inhibition of growth at 10 µM ([7]; read-out: GI): < 10%
inhibition of growth at 10 µM ([8]; read-out: GI): 55.9%
inhibition of growth at 10 µM [9]: 40%
growth at 10 µM [10]: 36.5%
growth at 10 µM [11]: 10.2%
growth at 10 µM [12]: 25.3%
inhibition of growth at 10 µM [13]: 37.7%
inhibition of growth at 10 µM ([14]; read-out: GI): 42.2%
inhibition of growth at 10 µM [15]: < 10%
inhibition of growth at 10 µM [16]: 14.6%
inhibition of growth at 10 µM [17]: 61.8%
inhibition of growth at 10 µM [18]: 37.3%
inhibition of growth at 10 µM [19]: 81.4%
inhibition of growth at 10 µM [20]: 73.4%
inhibition of growth at 10 µM [21]: 52.9%
inhibition of growth at 10 µM [22]: 46.6%
inhibition of growth at 10 µM ([23]; read-out: GI): 71.6%
inhibition of growth at 10 µM [24]: 77.8%
inhibition of growth at 10 µM [25]: 47.9%
growth at 10 µM [26]: 61.6%
growth at 10 µM [27]: 49.3%
growth at 10 µM [28]: 74.5%
growth at 10 µM [29]: 36.9%
growth at 10 µM [30]: 78.1%
growth at 10 µM [31]: 44.1%
growth at 10 µM [32]: 96.3%
growth at 10 µM [33]: 71.3%
growth at 10 µM [34]: 62.3%
growth at 10 µM [35]: 57.8%
growth at 10 µM [36]: 47.9%
growth at 10 µM [37]: 78.2%
growth at 10 µM [38]: 89.6%
growth at 10 µM [39]: 70%
growth at 10 µM [40]: 57.3%
growth at 10 µM [41]: 26.6%
growth at 10 µM [42]: 71%
growth at 10 µM [43]: 47.1%
growth at 10 µM [44]: 54%
growth at 10 µM [45]: 53.4%
growth at 10 µM [46]: 28.4%
growth at 10 µM [47]: 60.2%
growth at 10 µM [48]: 52.1%

C/C=C(/C)C(=O)O[C@@H]1CC(C)(C)C[C@H]2C3=CC[C@@H]4[C@@]5(C)CC[C@H](O)C(C)(C)[C@@H]5CC[C@@]4(C)[C@]3(C)CC[C@@]12C(=O)O [Reduced Lantadene A]
inhibition of growth at 10 µM [1]: 73.9%
growth inhibition (GI) [3]: Active
inhibition of growth at 10 µM [4]: 33.2%
inhibition of growth at 10 µM [5]: 77.2%
inhibition of growth at 10 µM [6]: 91.9%
growth inhibition (GI) [7]: Active
growth inhibition (GI) [8]: Active
inhibition of growth at 10 µM [9]: 30.2%
growth at 10 µM [10]: 41.4%
growth at 10 µM [11]: -50.8%
growth at 10 µM [12]: 45.8%
inhibition of growth at 10 µM [13]: 64.9%
growth inhibition (GI) [14]: Active
inhibition of growth at 10 µM [15]: 66.3%
inhibition of growth at 10 µM [16]: 64.8%
inhibition of growth at 10 µM [17]: 61.8%
inhibition of growth at 10 µM [18]: 60.9%
inhibition of growth at 10 µM [19]: 78.8%
inhibition of growth at 10 µM [20]: 80%
inhibition of growth at 10 µM [21]: 64.9%
inhibition of growth at 10 µM [22]: 35.3%
growth inhibition (GI) [23]: Active
inhibition of growth at 10 µM [24]: 72.6%
inhibition of growth at 10 µM [25]: 38.1%
growth at 10 µM [26]: 75.7%
growth at 10 µM [27]: 61%
growth at 10 µM [28]: 74.9%
growth at 10 µM [29]: 33.3%
growth at 10 µM [30]: 66.8%
growth at 10 µM [31]: -42.9%
growth at 10 µM [32]: 64%
growth at 10 µM [33]: 63.2%
growth at 10 µM [34]: 35.1%
growth at 10 µM [35]: -28.1%
growth at 10 µM [36]: 53.2%
growth at 10 µM [37]: 54.1%
growth at 10 µM [38]: 64.9%
growth at 10 µM [39]: 11.9%
growth at 10 µM [40]: -53%
growth at 10 µM [49]: -14.4%
growth at 10 µM [41]: 20%
growth at 10 µM [42]: 28.2%
growth at 10 µM [43]: 35.1%
growth at 10 µM [44]: -8.43%
growth at 10 µM [45]: 64.7%
growth at 10 µM [46]: -54.2%
growth at 10 µM [47]: 24.3%
growth at 10 µM [48]: 61.9%
